Measurements reported in US9458181B2, “Cathepsin cysteine protease inhibitors” (Merck Sharp & Dohme Corp., priority 2013, dated 2016).

Key:
[1] = biological target: human cathepsin K (UniProt P43236); assay: Cathepsin K Assay (hrbCat K); assay type: biochemical; details: human cathepsin K 0.4 nM, Z-Leu-Arg-AMC 8 μM, pH 5.5, 15 min preincubation; read-out: hrbCat K IP
Outline: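 Human cathepsin K (0.4 nM) in pH 5.5 MES buffer with EDTA, DTT and 10% DMSO was preincubated 15 min at room temperature with compound from a ⅓ dilution series (500-0.025 μM DMSO stocks). Z-Leu-Arg-AMC (8 μM) was then added, and AMC release was followed fluorometrically (Ex 360/Em 460 nm) for 30 min; inhibition was fitted to a dose-response model.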

[2] = biological target: T1, human cathepsin F (Homo sapiens, UniProt Q9UBX1); assay: Cathepsin F assay (hCat F); assay type: biochemical; details: human cathepsin F 10 nM, Z-Phe-Arg-AMC 8 μM, pH 5.5, 15 min preincubation; read-out: hCat F IP
T1 sequence (Q9UBX1 271-484): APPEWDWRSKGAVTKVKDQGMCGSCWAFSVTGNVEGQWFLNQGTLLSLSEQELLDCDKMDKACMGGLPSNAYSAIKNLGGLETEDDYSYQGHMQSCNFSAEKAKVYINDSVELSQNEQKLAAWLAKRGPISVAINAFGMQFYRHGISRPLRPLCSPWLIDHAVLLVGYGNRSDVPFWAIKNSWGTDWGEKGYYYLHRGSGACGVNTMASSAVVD
Outline: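 Fluorogenic read-out: cleavage of Z-Phe-Arg-AMC (8 μM in added buffer) was followed at Ex 360/Em 460 nm for 20 min, with dose-response fitting of percent inhibition. Before substrate addition, 10 nM human enzyme was incubated 15 min at room temperature with compounds (DMSO stocks 500–0.025 μM) in pH 5.5 MES/EDTA/DTT buffer containing 10% DMSO.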

Row | Compound | IC50 [1] [µM] | IC50 [2] [µM]
1 | N#CC1(NC(=O)[C@@H]2CCCC[C@H]2c2oc(-c3ccc(Cl)cc3)nc2-c2ccc(N3CCS(=O)(=O)CC3)cc2)CC1 [Example 38, (1R,2R)-2-(2-(4-chlorophenyl)-4-(4-(1,1-dioxidothiomorpholino)phenyl)oxazol-5-yl)-N-(1-cyanocyclopropyl) cyclohexanecarboxamide] | 0.00128 | 0.308
2 | Cc1nc(-c2ccc(N3CCS(=O)(=O)CC3)cc2)c([C@@H]2CCC(F)(F)C[C@H]2C(=O)NCC#N)o1 [Example 12, (1R,2R)-N-(cyanomethyl)-2-(4-(4-(1,1-dioxidothiomorpholino)phenyl)-2-methyloxazol-5-yl)-5,5-difluorocyclohexane-carboxamide] | 0.00029 | 0.327
3 | Cc1ncc(-c2nc(-c3ccc(N4CCS(=O)(=O)CC4)cc3)c([C@@H]3CCCC[C@H]3C(=O)NC3(C#N)CC3)o2)s1 [Example 73, (1R,2R)-N-(1-cyanocyclopropyl)-2-(4-(4-(1,1-dioxidothiomorpholino)phenyl)-2-(2-methylthiazol-5-yl)oxazol-5-yl)cyclohexanecarboxamide] | 0.00142 | 1.49
4 | N#CC1(NC(=O)[C@@H]2CCCC[C@H]2c2oc(-c3ccc(F)cc3F)nc2-c2ccc(N3CCS(=N)(=O)CC3)cc2)CC1 [Example 106, (1R,2R)-N-(1-cyanocyclopropyl)-2-(2-(2,4-difluorophenyl)-4-(4-(1-imino-1-oxidothiomorpholino)phenyl)oxazol-5-yl)cyclohexanecarboxamide] | 0.00159 | 0.192
5 | N#CC(NC(=O)[C@@H]1CC(F)(F)CC[C@H]1c1oc(C(F)(F)C(F)(F)F)nc1-c1ccc(C(=O)N2CCOCC2)cc1)C1CCOCC1 (single isomer, unassigned) [Example 144, (1R,2R)-N-((R or S)-cyano(tetrahydro-2H-pyran-4-yl)methyl)-5,5-difluoro-2-(4-(4-(morpholine-4-carbonyl)phenyl)-2-(perfluoroethyl)oxazol-5-yl)cyclohcxanccarboxamide] | 1.52 | ≥ 10
6 | N#CC1(NC(=O)[C@@H]2CCC(F)(F)C[C@H]2c2oc(C(F)(F)C(F)(F)F)nc2-c2ccc(N3CCS(=O)(=O)CC3)cc2)CC1 [Example 150, (1R,2R)-N-(1-cyanocyclopropyl)-2-(4-(4-(1,1-dioxidothiomorpholino)phenyl)-2-(perfluoroethyl)oxazol-5-yl)-4,4-difluorocyclohexane-carboxamide] | 0.0047 | ≥ 10
7 | N#CC1(NC(=O)[C@@H]2C[C@@H](F)CC[C@H]2c2oc(-c3ccc(F)cc3F)nc2-c2ccc(N3CCS(=O)(=O)CC3)cc2)CC1 [Example 41, (1R,2R,5S)-N-(1-cyanocyclopropyl)-2-(2-(2,4-difluorophenyl)-4-(4-(1,1-dioxidothiomorpholino)phenyl)oxazol-5-yl)-5-fluorocyclohexane-carboxamide] | 0.00141 | 2.19
8 | N#CCNC(=O)[C@@H]1CCCC[C@H]1c1oc(-c2ccc(F)cc2F)nc1-c1ccc(N2CCS(=O)(=O)CC2)cc1 [Example 44, (1R,2R)-N-(cyanomethyl)-2-(2-(2,4-difluorophenyl)-4-(4-(1,1-dioxidothiomorpholino)phenyl)oxazol-5-yl)cyclohexanecarboxamide] | 0.00067 | 0.229
9 | COC1CC(c2nc(-c3ccc(N4CCS(=O)(=O)CC4)cc3)c([C@@H]3CCCC[C@H]3C(=O)NC3(C#N)CC3)o2)C1 (mixture of isomers) [Example 117, (1R,2R)-N-(1-cyanocyclopropyl)-2-(4-(4-(1,1-dioxidothiomorpholino)phenyl)-2-((1R,3R and 1S,3S)-3-methoxycyclobutyl)oxazol-5-yl)cyclohexanecarboxamide] | 0.00146 | 2.24
10 | N#CC1(NC(=O)[C@@H]2CCCC[C@H]2c2oc(-c3ccc(C(F)(F)F)nc3)nc2-c2ccc(N3CCS(=O)(=O)CC3)cc2)CC1 [Example 40, (1R,2R)-N-(1-cyanocyclopropyl)-2-(4-(4-(1,1 dioxidothiomorpholino)phenyl)-2-(6-(trifluoromethyl)pyridin-3-yl)oxazol-5-yl)cyclohexane carboxamide] | 0.00142 | 2.22
11 | CC(C)[C@@H](C#N)NC(=O)[C@@H]1CC(F)(F)CC[C@H]1c1oc(C(F)(F)C(F)(F)F)nc1-c1ccc(C(=O)N2CCOCC2)cc1 [Example 148, (1R,2R)-N-((S)-1-cyano-2-methylpropyl)-5,5-difluoro-2-(4-(4-(morpholine-4-carbonyl)phenyl)-2-(perfluoroethyl)oxazol-5-yl)cyclohexanecarboxamide] | 0.00103 | 0.28
12 | CC(C)(C)c1nc(-c2ccc(N3CCS(=O)(=O)CC3)cc2)c([C@@H]2CCCC[C@H]2C(=O)NC2(C#N)CC2)s1 [Example 10, (1R,2R)-2-(2-(tert-butyl)-4-(4-(1,1-dioxidothiomorpholino)phenyl)thiazol-5-yl)-N-(1-cyanocyclopropyl)cyclohexanecarboxamide] | 0.00165 | 1.44
13 | N#CC1(NC(=O)[C@@H]2CCCC[C@H]2c2oc(-c3cccc(F)c3)nc2-c2ccc(N3CCS(=O)(=O)CC3)cc2)CC1 [Example 62, (1R,2R)-N-(1-cyanocyclopropyl)-2-(4-(4-(1,1-dioxidothiomorpholino)phenyl)-2-(3-fluorophenyl)oxazol-5-yl)cyclohexanecarboxamide] | 0.00092 | 0.492
14 | CS(=O)(=O)C1CN(c2ccc(-c3nc(-c4ccc(F)cc4F)oc3[C@@H]3CCCC[C@H]3C(=O)NC3(C#N)CC3)cc2)C1 [Example 39, (1R,2R)-N-(1-cyanocyclopropyl)-2-(2-(2,4-difluorophenyl)-4-(4-(3-(methylsulfonyl)azetidin-1-yl)phenyl)oxazol-5-yl) cyclohexanecarboxamide] | 0.00211 | 0.702
15 | N#CC1(NC(=O)[C@@H]2CCCC[C@H]2c2oc(-c3ccccc3F)nc2-c2ccc(N3CCS(=O)(=O)CC3)cc2)CC1 [Example 67, (1R,2R)-N-(1-cyanocyclopropyl)-2-(4-(4-(1,1-dioxidothiomorpholino)phenyl)-2-(2-fluorophenyl)oxazol-5-yl)cyclohexanecarboxamide] | 0.00057 | 0.619
16 | COc1cccc(-c2nc(-c3ccc(N4CCS(=O)(=O)CC4)cc3)c([C@@H]3CCCC[C@H]3C(=O)NC3(C#N)CC3)o2)c1 [Example 71, (1R,2R)-N-(1-cyanocyclopropyl)-2-(4-(4-(1,1-dioxidothiomorpholino)phenyl)-2-(3-methoxyphenyl)oxazol-5-yl)cyclohexanecarboxamide] | 0.00159 | 0.511
17 | N#CC1(NC(=O)[C@@H]2CCCC[C@H]2c2oc(-c3cccc(C4CC4)c3)nc2-c2ccc(N3CCS(=O)(=O)CC3)cc2)CC1 [Example 77, (1R,2R)-N-(1-cyanocyclopropyl)-2-(2-(3-cyclopropylphenyl)-4-(4-(1,1-dioxidothiomorpholino)phenyl)oxazol-5-yl)cyclohexanecarboxamide] | 0.00065 | 0.533
18 | C[C@@H](C#N)NC(=O)[C@@H]1CC(F)(F)CC[C@H]1c1oc(C(F)(F)C(F)(F)F)nc1-c1ccc(C(=O)N2CCOCC2)cc1 [Example 137, (1R,2R)-N-((S)-1-cyanoethyl)-5,5-difluoro-2-(4-(4-(morpholine-4-carbonyl)phenyl)-2-(perfluoroethyl)oxazol-5-yl)cyclohexanecarboxamide] | 0.00039 | 0.295
19 | CC(C)(O)C(C#N)NC(=O)[C@@H]1CCCC[C@H]1c1oc(-c2ccc(F)cc2)nc1-c1ccc(N2CCS(=O)(=O)CC2)cc1 (single isomer, unassigned) [Example 158, (1R,2R)-N-((R or S)-1-cyano-2-hydroxy-2-methylpropyl)-2-(4-(4-(1,1-dioxidothiomorpholino)phenyl)-2-(4-fluorophenyl)oxazol-5-yl)cyclohexanecarboxamide] | 9.74 | ≥ 10
20 | CS(=O)(=O)C1CN(c2ccc(-c3nc(C(F)(F)F)oc3[C@@H]3CCCC[C@H]3C(=O)NC3(C#N)CC3)cc2)C1 [Example 25] | 0.00066 | 0.447
21 | N#CC1(NC(=O)[C@@H]2C[C@@H](F)CC[C@H]2c2oc(C(F)(F)C(F)(F)F)nc2-c2ccc(N3CCS(=O)(=O)CC3)cc2)CC1 [Example 42, (1R,2R,5S)-N-(1-cyanocyclopropyl)-2-(4-(4-(1,1-dioxidothiomorpholino)phenyl)-2-(perfluoroethyl)oxazol-5-yl)-5-fluorocyclohexane-carboxamide] | 0.00241 | 1.86
22 | N#CC(NC(=O)[C@@H]1CC(F)(F)CC[C@H]1c1oc(C(F)(F)C(F)(F)F)nc1-c1ccc(C(=O)N2CCOCC2)cc1)C1CCOCC1 (single isomer, unassigned) [Example 145, (1R,2R)-N-((S or R)-cyano(tetrahydro-2H-pyran-4-yl)methyl)-5,5-difluoro-2-(4-(4-(morpholine-4-carbonyl)phenyl)-2-(perfluoroethyl)oxazol-5-yl)cyclohcxanecarboxamide] | 0.003 | 1.09
